Laboratory results from ChEMBL document CHEMBL1201862, “PubChem BioAssay data set” (2004).
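Following 48 hours of exposure in 96-well plates, responses at five concentrations were used to interpolate endpoints linearly. The concentration for 50% growth inhibition is given as GI50.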 Calls of active or inactive are those of the source. Rule as the data show it: active = GI50 up to about 1.1 µM and inactive = higher.

Key:
Assay in all cases: DTP human tumour cell line panel, 48 h
[1] = system: EKVX
[2] = system: HT-29
[3] = system: IGROV-1
[4] = system: LOX IMVI
[5] = system: M14
[6] = system: Malme-3M
[7] = system: NCI-H23
[8] = system: RPMI-8226
[9] = system: RXF 393
[10] = system: SF-295
[11] = system: SF-539
[12] = system: SK-MEL-28
[13] = system: SK-MEL-5
[14] = system: SK-OV-3
[15] = system: SW-620
[16] = system: TK-10
[17] = system: U-251
[18] = system: UACC-62
[19] = system: T47D

Structure (SMILES)	GI50 [1]	GI50 [2]	GI50 [3]	GI50 [4]	GI50 [5]	GI50 [6]	GI50 [7]	GI50 [8]	GI50 [9]	GI50 [10]	GI50 [11]	GI50 [12]	GI50 [13]	GI50 [14]	GI50 [15]	GI50 [16]	GI50 [17]	GI50 [18]	GI50 [19]
CC1=C(O)C(=O)C2C(=O)C1C(C)C2c1ccc(C)cc1 (stereo not drawn)	> 100 µM (inactive)	> 100 µM (inactive)	> 100 µM (inactive)	> 100 µM (inactive)	> 100 µM (inactive)	> 100 µM (inactive)	> 100 µM (inactive)	> 100 µM (inactive)	> 100 µM (inactive)	> 100 µM (inactive)	> 100 µM (inactive)	> 100 µM (inactive)	> 100 µM (inactive)	> 100 µM (inactive)	> 100 µM (inactive)	> 100 µM (inactive)	> 100 µM (inactive)	> 100 µM (inactive)	–
Cc1nc(-n2nc(-c3ccccc3)cc2-c2ccccc2)sc1C(/C=C/c1ccc([N+](=O)[O-])cc1)=N/NC(=O)c1ccncc1	36.8 µM (inactive)	14.4 µM (inactive)	21.1 µM (inactive)	14.2 µM (inactive)	20.2 µM (inactive)	21.9 µM (inactive)	14.8 µM (inactive)	7.16 µM (inactive)	22.4 µM (inactive)	29 µM (inactive)	13.1 µM (inactive)	31.1 µM (inactive)	18.1 µM (inactive)	44.8 µM (inactive)	26.7 µM (inactive)	32.6 µM (inactive)	27.7 µM (inactive)	19.4 µM (inactive)	–
CCc1cccc(C(C)C)c1NC(=O)CC1Sc2ccccc2NC1=O (stereo not drawn)	80.5 µM (inactive)	55.6 µM (inactive)	37.8 µM (inactive)	45 µM (inactive)	38.6 µM (inactive)	83.6 µM (inactive)	52.8 µM (inactive)	48.5 µM (inactive)	41 µM (inactive)	44.3 µM (inactive)	> 100 µM (inactive)	> 100 µM (inactive)	36.5 µM (inactive)	> 100 µM (inactive)	13 µM (inactive)	> 100 µM (inactive)	71 µM (inactive)	–	–
C=C=C(C(=O)OC)[S+]([O-])c1ccccc1[N+](=O)[O-] (stereo not drawn)	> 100 µM (inactive)	> 100 µM (inactive)	> 100 µM (inactive)	–	> 100 µM (inactive)	> 100 µM (inactive)	> 100 µM (inactive)	> 100 µM (inactive)	> 100 µM (inactive)	> 100 µM (inactive)	> 100 µM (inactive)	–	> 100 µM (inactive)	> 100 µM (inactive)	99.5 µM (inactive)	> 100 µM (inactive)	> 100 µM (inactive)	> 100 µM (inactive)	–
CC(=O)CCCCO	> 100 µM (inactive)	> 100 µM (inactive)	> 100 µM (inactive)	> 100 µM (inactive)	> 100 µM (inactive)	> 100 µM (inactive)	> 100 µM (inactive)	> 100 µM (inactive)	> 100 µM (inactive)	> 100 µM (inactive)	> 100 µM (inactive)	> 100 µM (inactive)	> 100 µM (inactive)	> 100 µM (inactive)	> 100 µM (inactive)	> 100 µM (inactive)	> 100 µM (inactive)	> 100 µM (inactive)	–
CC(=O)NC(CCCCN(Cc1ccccc1)C(=O)N(C)N=O)C(=O)NCc1ccccc1 (stereo not drawn)	90.4 µM (inactive)	83.9 µM (inactive)	> 100 µM (inactive)	> 100 µM (inactive)	> 100 µM (inactive)	82 µM (inactive)	> 100 µM (inactive)	40.6 µM (inactive)	72.1 µM (inactive)	> 100 µM (inactive)	> 100 µM (inactive)	> 100 µM (inactive)	47.1 µM (inactive)	> 100 µM (inactive)	> 100 µM (inactive)	> 100 µM (inactive)	> 100 µM (inactive)	> 100 µM (inactive)	–
COc1ccc(OC(C)=O)c2c1CCC=CC2=O	–	12.3 µM (inactive)	17.7 µM (inactive)	4.7 µM (inactive)	6.78 µM (inactive)	20.1 µM (inactive)	18.5 µM (inactive)	1.01 µM (active)	9.16 µM (inactive)	20.9 µM (inactive)	16.9 µM (inactive)	15 µM (inactive)	15.6 µM (inactive)	17.5 µM (inactive)	13.2 µM (inactive)	18.3 µM (inactive)	18.3 µM (inactive)	13.4 µM (inactive)	–
CCc1cccc(C(C)C)c1NC(=O)C(=O)C(CC(=O)Nc1ccc(Cl)c(Cl)c1)C(=O)OC (stereo not drawn)	> 100 µM (inactive)	> 100 µM (inactive)	> 100 µM (inactive)	> 100 µM (inactive)	54.3 µM (inactive)	> 100 µM (inactive)	> 100 µM (inactive)	44 µM (inactive)	> 100 µM (inactive)	> 100 µM (inactive)	> 100 µM (inactive)	> 100 µM (inactive)	55.8 µM (inactive)	> 100 µM (inactive)	10 µM (inactive)	> 100 µM (inactive)	> 100 µM (inactive)	2.18 µM (inactive)	–
COc1ccc(/C=c2\sc3nnc(CCC(=O)Nc4cccc(C(F)(F)F)c4)n3c2=O)cc1	> 100 µM (inactive)	> 100 µM (inactive)	> 100 µM (inactive)	> 100 µM (inactive)	> 100 µM (inactive)	> 100 µM (inactive)	> 100 µM (inactive)	38.4 µM (inactive)	41.5 µM (inactive)	> 100 µM (inactive)	> 100 µM (inactive)	> 74.3 µM (inactive)	> 100 µM (inactive)	> 100 µM (inactive)	> 100 µM (inactive)	> 100 µM (inactive)	> 94.2 µM (inactive)	> 62.8 µM (inactive)	–
O=C1C=CC2(C=C1)C[C@H](NC(=O)C(F)(F)F)C(=O)O2	18.2 µM (inactive)	79.6 µM (inactive)	–	22.3 µM (inactive)	73.8 µM (inactive)	19.8 µM (inactive)	26.7 µM (inactive)	31.3 µM (inactive)	27.5 µM (inactive)	> 100 µM (inactive)	34.7 µM (inactive)	18.5 µM (inactive)	76.2 µM (inactive)	> 100 µM (inactive)	–	> 100 µM (inactive)	54.3 µM (inactive)	18.1 µM (inactive)	–
Cc1ccc([Se][Se]c2ccc(C)cc2)cc1	–	20.5 µM (inactive)	38.3 µM (inactive)	5.42 µM (inactive)	> 10 µM (inactive)	32.4 µM (inactive)	23.8 µM (inactive)	5.02 µM (inactive)	19.9 µM (inactive)	23.3 µM (inactive)	22.3 µM (inactive)	19.1 µM (inactive)	16 µM (inactive)	> 100 µM (inactive)	7.62 µM (inactive)	67.9 µM (inactive)	3.18 µM (inactive)	9.4 µM (inactive)	–
CCOc1ccccc1NC(=O)/C=C1\NC(=O)CS1	> 100 µM (inactive)	> 100 µM (inactive)	> 100 µM (inactive)	> 100 µM (inactive)	> 100 µM (inactive)	50.5 µM (inactive)	> 100 µM (inactive)	62.5 µM (inactive)	> 100 µM (inactive)	> 100 µM (inactive)	> 100 µM (inactive)	> 100 µM (inactive)	> 100 µM (inactive)	> 100 µM (inactive)	> 100 µM (inactive)	> 100 µM (inactive)	> 100 µM (inactive)	> 100 µM (inactive)	–
COc1cc(Cl)c2c3c(c(C(C)=O)oc13)CCC2	> 100 µM (inactive)	> 100 µM (inactive)	> 100 µM (inactive)	> 100 µM (inactive)	> 100 µM (inactive)	–	> 100 µM (inactive)	86.9 µM (inactive)	85.1 µM (inactive)	> 100 µM (inactive)	> 100 µM (inactive)	> 100 µM (inactive)	> 100 µM (inactive)	> 100 µM (inactive)	> 100 µM (inactive)	> 100 µM (inactive)	> 100 µM (inactive)	> 100 µM (inactive)	–
O=C(CSc1nc(=O)c(-c2ccccc2NC(=O)C(F)(F)F)n[nH]1)NC(=O)Nc1ccccc1	55.5 µM (inactive)	> 100 µM (inactive)	> 100 µM (inactive)	> 100 µM (inactive)	> 100 µM (inactive)	> 100 µM (inactive)	> 100 µM (inactive)	–	> 100 µM (inactive)	> 100 µM (inactive)	> 100 µM (inactive)	> 100 µM (inactive)	> 10 µM (inactive)	39 µM (inactive)	> 100 µM (inactive)	45.9 µM (inactive)	> 100 µM (inactive)	50 µM (inactive)	–
CC(O)C(NC(=O)C(CS)NC(=O)C(CO)NC(=O)C(CCCCN)NC(=O)C(Cc1c[nH]c2ccccc12)NC(=O)C(Cc1ccc(O)cc1)NC(=O)C(CS)NC(=O)C(N)Cc1ccccc1)C(N)=O (stereo not drawn)	> 25 µM (inactive)	> 25 µM (inactive)	> 25 µM (inactive)	> 25 µM (inactive)	> 25 µM (inactive)	> 25 µM (inactive)	> 25 µM (inactive)	> 25 µM (inactive)	> 25 µM (inactive)	> 25 µM (inactive)	> 25 µM (inactive)	26.9 µM (inactive)	> 25 µM (inactive)	> 25 µM (inactive)	> 25 µM (inactive)	–	> 25 µM (inactive)	> 25 µM (inactive)	> 25 µM (inactive)
COc1cc(-c2cc(=O)c3c(O)c(OC)c(OC)c(OC)c3o2)ccc1O	> 100 µM (inactive)	–	4.84 µM (inactive)	16.8 µM (inactive)	23.3 µM (inactive)	28.7 µM (inactive)	27.7 µM (inactive)	19 µM (inactive)	13 µM (inactive)	23.4 µM (inactive)	11.8 µM (inactive)	23.5 µM (inactive)	15.3 µM (inactive)	11.2 µM (inactive)	31.7 µM (inactive)	28.2 µM (inactive)	8.97 µM (inactive)	14.8 µM (inactive)	–
